Measurements as given in patent publication US20240174631A1, “COMPOUNDS, COMPOSITIONS, AND METHODS FOR MODULATING FGF ACTIVITY” (Recovery Therapeutics, Inc., priority 2021, published 2024).

Assays:
[1] = tested on: rodent model of stroke recovery (MCAO); assay: Stroke recovery in vivo after middle cerebral artery occlusion (MCAO): limb placing and body swing tests; details: rat MCAO; 10 mg/kg i.v. on Day 1, 2 and 3 after MCAO; vs vehicle, p<0.001; up to Day 21
Protocol: Compound 2 (2-(1-benzhydrylpiperidin-4-yl)-N,N-diethyl-1,2,3,4-tetrahydroisoquinolin-6-amine) was tested for its effectiveness in a rodent model of stroke recovery. Twenty male Sprague Dawley Rats (Charles River Laboratories) each weighing 300-400 g were used in this experiment. First, anesthesia was induced in an induction chamber with 2-3% isoflurane in N2O:O2 (2:1) and maintained with 1-1.5% isoflurane via face mask. Adequate depth of anesthesia was assessed by lack of withdrawal to hindlimb pinch and loss of eyeblink reflex. Once anesthetized, animals received cefazolin sodium (40 mg/kg, i.p.) and buprenorphine SR (0.9-1 mg/kg, s.c.). Cefazolin was used as a prophylactic antibiotic. A veterinary ophthalmic ointment (Sodium Chloride hypertonicity ophthalmic ointment (Muro 128 Sterile Ophthalmic 5% Ointment)) was applied to the eyes. […]
Behavioral evaluations of sensorimotor function were done by investigators blinded to treatment assignment. […] For the forelimb-placing test, the examiner held the rat close to a tabletop and scored the rat's ability to place the forelimb on the tabletop in response to whisker, visual, tactile, or proprioceptive stimulation. Similarly, for the hindlimb placing test, the examiner assessed the rat's ability to place the hindlimb on the tabletop in response to tactile and proprioceptive stimulation. […]

FGFR1 = FGFR1 (Homo sapiens, UniProt P11362); assay: Phosphorylation of FGFR1 in cells expressing FGFR1 in the presence of submaximal FGF-2; format: cell-based; details: increasing concentrations, submaximal concentration of FGF-2; FIG. 2
Sequence of FGFR1 (P11362 22-822): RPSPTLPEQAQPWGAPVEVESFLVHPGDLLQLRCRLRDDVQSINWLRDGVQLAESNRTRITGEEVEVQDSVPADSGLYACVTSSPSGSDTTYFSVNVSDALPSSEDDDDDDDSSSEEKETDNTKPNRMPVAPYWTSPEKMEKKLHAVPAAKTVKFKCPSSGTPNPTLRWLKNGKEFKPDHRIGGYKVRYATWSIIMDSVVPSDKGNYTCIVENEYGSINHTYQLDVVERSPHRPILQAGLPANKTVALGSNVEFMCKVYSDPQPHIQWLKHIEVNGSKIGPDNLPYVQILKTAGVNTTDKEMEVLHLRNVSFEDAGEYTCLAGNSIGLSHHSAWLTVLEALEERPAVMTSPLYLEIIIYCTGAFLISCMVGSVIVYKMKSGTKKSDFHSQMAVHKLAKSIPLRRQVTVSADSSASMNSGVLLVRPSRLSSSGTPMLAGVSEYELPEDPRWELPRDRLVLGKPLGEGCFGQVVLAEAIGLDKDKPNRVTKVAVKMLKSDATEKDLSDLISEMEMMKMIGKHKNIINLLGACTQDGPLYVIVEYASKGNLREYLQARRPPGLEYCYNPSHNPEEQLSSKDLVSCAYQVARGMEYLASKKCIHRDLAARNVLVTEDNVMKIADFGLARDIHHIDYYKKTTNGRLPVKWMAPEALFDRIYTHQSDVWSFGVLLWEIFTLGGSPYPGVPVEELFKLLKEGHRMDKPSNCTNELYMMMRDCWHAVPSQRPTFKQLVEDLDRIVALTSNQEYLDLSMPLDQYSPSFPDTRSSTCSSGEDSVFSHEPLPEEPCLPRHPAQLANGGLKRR
Sequence of FGFR1 (P09038 143-288 partner): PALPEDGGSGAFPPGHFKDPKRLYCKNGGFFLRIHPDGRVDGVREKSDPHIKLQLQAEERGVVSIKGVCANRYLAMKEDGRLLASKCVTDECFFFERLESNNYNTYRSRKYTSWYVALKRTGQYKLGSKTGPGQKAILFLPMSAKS
Protocol: Cells expressing FGFR1 were exposed to increasing concentrations of Compound 2 in the presence of a submaximal concentration of FGF-2. Cells were then lysed, and the relative phosphorylation of FGFR1 was assessed using antibodies to non-phosphorylated and phosphorylated FGFR1. The results are shown in FIG. 2, which is a graph showing the phosphorylation of FGFR1 in the presence of increasing concentrations of Compound 2.

FGF2 = target: T1, FGF2 (Homo sapiens, UniProt P09038); assay: Thermal shift assay (TSA) of FGFR1/FGF2 complex, FGF2 melting peak; format: binding
T1 construct: made in house; host or cells: Escherichia coli BL21 (DE3) Star
T1 sequence (P09038 156-288 limits assumed): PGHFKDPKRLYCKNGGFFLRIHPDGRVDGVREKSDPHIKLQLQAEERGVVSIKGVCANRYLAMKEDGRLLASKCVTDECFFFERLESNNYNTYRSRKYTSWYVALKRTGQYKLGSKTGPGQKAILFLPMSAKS
T1 sequence (P11362 142-365 partner limits assumed): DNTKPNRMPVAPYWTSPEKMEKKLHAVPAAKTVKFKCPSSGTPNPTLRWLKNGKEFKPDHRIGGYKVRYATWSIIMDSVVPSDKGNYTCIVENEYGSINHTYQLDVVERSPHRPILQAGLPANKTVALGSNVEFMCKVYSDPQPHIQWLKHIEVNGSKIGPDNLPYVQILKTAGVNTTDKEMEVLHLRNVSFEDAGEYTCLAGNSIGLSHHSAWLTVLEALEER
Text: TSA was utilized to biophysically characterize the recombinant human FGFR1/FGF2 complex in the presence or absence of compounds. The assay functions by protein denaturation over a temperature gradient. During protein unfolding, exposed hydrophobic regions bind a dye and fluoresce due to solvent relaxation effects. Changes in the melting temperature of the protein complex in the presence of each compound were monitored and compounds were screened/ranked using this method.
One Shot BL21 (DE3) Star Escherichia coli competent cells (Thermo Fisher) were transformed with a relevant FGF2 plasmid and inoculated onto Ampicillin Luria Broth/Agar plates. Two hundred milliliter portions of Terrific Broth starter cultures were used to inoculate 9 L cultures with ampicillin at a concentration of 100 μg/mL. Cultures were grown to an O.D.600 near 1.0 at 37° C., and induced with IPTG overnight at 18° C. The cells were harvested at 7000 RPM in rotor 6000 for 5 min at 4° C. and stored at −80° C. Bacterial pellets were resuspended in 25 mM Hepes-NaOH, pH 7.5, 250 mM NaCl, and the cells were lysed in 3 cycles on/off for 3 minutes each at 4° C. via sonication. After centrifugation for 30 minutes at 16,000 RPM at 4° C., the isolated pellets were discarded, and the supernatant was filtered supernatant through a […] PES filter using 100 mL superloop. The lysate was purified over a 5 mL S column by washing the column with Lysis buffer for 5 CV then eluting using gradient from 250 mM to 1 M NaCl over 20 CV. The fractions containing FGF2 were identified via SDS-PAGE gel (Expected Mw: 15.2 KDa). The protein was collected and diluted in 20 mM Tris-HCl pH 8.0, 25 mM MgCl2 buffer in order to reach a NaCl concentration of 150 mM. The purified FGF2 was concentrated and stored at −80° C.
Thawed aliquots of purified FGF2 (1.0 mg/mL) and FGFR1 (1.6 mg/mL) proteins were mixed in a 1:1 molar ratio (64 μM: 64 μM) on ice for 30 min at 4° C. and plated prior to the thermal shift assay (TSA). Complex formation was verified by loading the complexed material on a size exclusion column (superdex 300GL S200) and observing the monodisperse peak corresponding to the FGF2/FGFR1 complex (˜40 kDa). Compounds of the invention were screened in dose response format (0-100 μM) with the FGF2/FGFR1 complex in triplicates. FGF2/FGFR1/compound complexes were mixed in a 1000:1 ratio with Sypro Orange dye (Sigma-Aldrich). The samples were processed using a Bio-Rad CFX C96 Touch quantitative polymerase chain reaction and run using the FRET assay settings with a heating ramp of 0.3° C./s cycling from 4 to 100° C. Data analysis was performed using the Bio-Rad CFX Manager Software (version 3.1, Bio-Rad) and changes in the melting temperature (Tm) of the complex in the presence of each compound were monitored. The results are shown in Tables 2 and 3 below and also in FIG. 1 (for Compound 2).

phosphorylation of FGFR1 (FGFR1): augmented the effects of FGF-2
ΔTm at 2 µM (FGF2; 2 μM compound): -2.5 °C
ΔTm at 10 µM (FGF2; 10 μM compound): -3 °C
Compound: CCN(CC)c1ccc2c(c1)CCN(C1CCN(C(c3ccccc3)c3ccccc3)CC1)C2 [Compound 2, 2-(1-benzhydrylpiperidin-4-yl)-N,N-diethyl-1,2,3,4-tetrahydroisoquinolin-6-amine]
sensorimotor recovery (forelimb placing, hindlimb placing and body swing tests) [1]: clear and significant augmentation of sensorimotor recovery
